Experiments:
[1] = tested on: secreted Cxcl9 and Cxcl10, B16F10 cells; experiment: ELISA of secreted Cxcl9 and Cxcl10 in stimulated cells; format: cell-based, mouse; conditions: MS177 (10 μM), GSK126 (2μM) or Z36-MP5 (10 μM)
Description: B16F10 cells (1 × 10^6) with or without Mi-2β knockdown were seeded in 6-well plates in complete growth medium. Cell medium was changed to serum-free medium, before treatment with IFN-γ at indicated concentration for 24 h. The secreted chemokines were measured by mouse Cxcl9 ELISA kit (ab203364) and mouse Cxcl10 ELISA Kit (ab214563), according to the manufacturer’s protocols. Isolated graft tumors were prepared and minced with blades, then tumor tissues were cultured in PBS (250 mg/500 µl) for 4 h at 37 °C. The secreted amount of the chemokines in the culture were measured by mouse Cxcl9 ELISA kit (ab203364) and mouse Cxcl10 ELISA Kit (ab214563), according to the manufacturer’s protocols.
Supplementary Figure 10. Comparison of tumor growth inhibition effects between Z36-MP5 and EZH2 inhibitors. a Mice (n=8) bearing B16F10 cells were treated with control IgG or anti-PD-1 antibody in combination with Z36-MP5 or GSK126, as indicated. A mouse survival curve is shown, with log-rank test for mouse survival P value. b,c The epigenetic modifications of H3 (H3K27ac, H3K27me1 and H3K27me3) were measured in B16F10 cells stimulated with GSK126 or Z36-MP5 as indicated (n = 3, independent experiments). d The amount of secreted Cxcl9 and Cxcl10 was measured by ELISA in […]
represent mean ± SD. The unpaired, two tailed t-test. Source data are provided as a Source Data file. […]

[2] = tested on: Pmel-1 T cells co cultured with tumor cells; experiment: Pmel-1 T-cell killing of tumor cells; format: cell-based, mouse
Description: To test whether Z36-MP5 affects cell proliferation, cells were seeded into 96-well plates at a density of 1 × 10^3 cells/100 μl per well. CCK-8 was used to detect changes in proliferation ability after 3 days of treatment with Z36-MP5 (25 μM). To test whether Mi-2β expression in T cells or treatment of T cells with Z36-MP5 affects the ability of T cells to kill tumor cells, Mi-2β in Pmel-1 T cells was manipulated or Pmel-1 cells were exposed to Z36-MP5 (25 μM) for 24 hrs. The number of cells was quantified. One thousand Pmel-1 T cells were then co cultured with 1000 tumor cells for 24 hrs, and the number of tumor cells was counted.
Supplementary Figure 8. In vitro assay for Mi-2β inhibitors. a The body weight changes of C57BL/6J mice treated with Z36-MP5 (30 mg/kg/day) for 2 weeks. Data are mean ± SEM (n=5). b H&E staining of tissues in C57BL/6J mice treated with or without Z36 -MP5 (30 mg/kg/day) for 2 weeks. […]
The growth of tumor grafts was measured. n = 5. g Mice bearing B16F10 cell s were treated with MS177 (100 mg/kg, 5 days) and then Z36 -MP5 (30 mg/kg/day) or vehicles, accompanied with anti -PD-1 antibody […]

[3] = Estimated blood concentration in mice; format: in vivo; conditions: intraperitoneal 30 mg per kg, extrapolated from rat
Text: FLT3 kinase inhibitor for acute myeloid leukemia with FLT3 mutations. J Med Chem, 61, 3855-3869 (2018); Lexian Tong et al., Identification of 2-aminopyrimidine derivatives as FLT3 kinase inhibitors with high selectivity over c-KIT. J Med Chem, 65, 3229-3248 (2022)). In these cases, the cellular form of the FLT3-WT or FLT3-ITD mutant was preferentially bound. Another example is paclitaxel, a microtubule-stabilizing agent that is widely used in cancer chemotherapy. Biochemical competitive […]
(Shubhada Sharma, et al., Dissecting paclitaxel–microtubule association: quantitative assessment of the 2’-OH group. Biochemistry, 52, 2328-2336 (2013)). Paclitaxel sensitizes BG-1 ovarian cancer cells to radiation at a dose that was not cytotoxic and […]
sensitizer: a flow cytometric study. Gynecol Oncol, 50, 89-93 (1993)).
Like the Mi-2β silencing by shMi-2β (Supplementary Fig. 3C), we observed substantial increases in expressions of Mi-2β target genes, Cxcl9 and Cxcl10, to similar levels after treatment of B16F10 cells with Z36-MP5 at concentrations 5 μM to 100 μM (Fig. 5F).
MP5 treatment would be sufficient for inhibiting Mi-2β in cells. Moreover, we observed a maintenance of blood concentration of 4 μM to 10 μM Z36-MP5 in rat for around 1 hour after the intraperitoneal injection at a dose of Z36-MP5 as low as 1 mg per kg […]

B16F10 cell graft = experiment: Syngeneic melanoma graft mouse model, tumor growth and survival
Description: Mi-2β knockdown or Scramble B16F10 cells (1.5 × 10^5) were mixed with BD matrigel (Matrix Growth Factor Reduced) (BD, 354230) in 100 μl PBS, and then subcutaneously injected into the right flanks of C57BL/6 mice of 8–10 week old (from the Jackson Laboratory, 000664). Tumor growth was measured with calipers, and size was expressed in cubic centimeters every 3 days. For antibody treatment, control IgG (10 mg/kg) or anti-PD-1 (RMP1-14, BioXCell, 10 mg/kg) was injected intraperitoneally (i.p.) on day 6, 9, 12, 15 and 18 after tumor cell inoculation. For tumor growth curve, grafts were measured with calipers and established (0.5*length × width^2) every three days. For survival tests, mice were euthanized when the tumor size exceeded 1 cm^3. […] The mice were euthanized after indicated days or when the allowable endpoint size (1 cm^3) was reached.

Q: For `Cn1c(=O)[nH]c2ccc(-c3cccc(C(=O)NC4CCn5ccnc5C4)c3)cc21` (centres unmarked) [Z36-MP5], which “induction of ISGs compared with GSK126 or MS177” value [1] is on record?
A: more efficiently induced

Q: What about the “killing potential of T cells” value [2] of the same compound?
A: not significantly inhibited

Q: And the “estimated highest blood concentration in mice” value [3]?
A: around 0.97 mM

Q: And the “treatment effect in mice treated with MS177 to inhibit EZH2” value (B16F10 cell graft; B16F10 graft, MS177 100 mg/kg 5 days, then anti-PD-1 with Z36-MP5 or vehicle)?
A: No treatment effects were detected

Q: And the “effect on tumors generated from Mi-2β-null cells” value (B16F10 cell graft; Z36-MP5 30 mg/kg/day accompanied by anti-PD-1)?
A: No detectable inhibitory effect
